Experimental data published in the METLIN SMRT retention time set (Domingo-Almenara et al. 2019).

Assay: gradient 5% acetonitrile 3 min, to 50% in 2 min, to 85% in 15 min, held 3 min, 100 µL/min
Conditions: column: Zorbax Extend-C18 2.1 x 50 mm; eluents: water / acetonitrile, 0.1% formic acid
Procedure, shortened: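 Standards, all pure, were combined into mixtures of ~100 molecules and run at 100 μL/min on a Zorbax Extend-C18 column (2.1 × 50 mm, 1.8 μm) with water and acetonitrile, each containing 0.1% formic acid. A coupled quadrupole time-of-flight mass spectrometer operated in positive and negative ionization mode. Retention time values come from computationally picked adduct peaks, each inspected manually.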

SMILES | RP-LC retention time [s]
O=C(CC1=C2CCCCC2NC1=O)Nc1ccccc1F (stereo not drawn) | 693
COc1ccc(-c2noc(-c3ccc(N4CCC(N5CCCCC5)CC4)nc3)n2)cc1 | 738
Cn1ncc(N2CCCC(CC(=O)N3CCC4(CC3)OCCO4)C2)cc1=O (stereo not drawn) | 625
O=c1c2cc(-c3ccc4c(c3)OCO4)nn2ccn1Cc1nc(-c2cccc(Cl)c2)no1 | 1080
O=C(NCc1ccccc1F)c1ccc2c(c1)Sc1ncccc1C(=O)N2C1CC1 | 794
COCCCNC(=O)C(C)n1nc(C)c2c(C)n(-c3ccccc3)nc2c1=O (stereo not drawn) | 686
COCCn1c(CC2CCN(C(=O)Cc3ccsc3)C2)nc2cccnc21 (stereo not drawn) | 599
O=C(C1CCC1)N1CCC(n2cnnc2C2CC2)CC1 | 598
CCCCN(C)C(=O)C1CCN(c2cc(Oc3ccc(CC)cc3)ncn2)CC1 | 1060
O=C(NCCc1c[nH]c2ccccc12)c1cc(S(=O)(=O)N2CCSCC2)ccc1Cl | 925
Cc1ccn2cc(-c3ccc(NC(=O)c4ccc(Cl)cc4)cc3)nc2n1 | 676
O=C(NCc1cccc(Br)c1)c1cn2nc(Cl)ccc2n1 | 867
Clc1ccc2nnc(Cc3ccccc3)n2n1 | 739
COc1ccccc1-c1nc(-c2ccc3ncn(C(C)C)c3c2)no1 | 741
COc1ccc(C(=O)N2CCCC2c2nc(-c3ccccc3)n[nH]2)cc1 (stereo not drawn) | 707
CCn1ccc(C(=O)Nc2ccc3c(c2)Sc2ncccc2C(=O)N3C)n1 | 698
Cn1nccc1-c1cccc(-c2noc(CNC(=O)Cc3ccc(Cl)cc3)n2)c1 | 871
O=C([C@@H]1C[C@H](F)CN1S(=O)(=O)c1cccs1)N1CCc2ccccc2C1 | 830
CC(C)CCNC(=O)N1CC(c2nc(-c3cccnc3)no2)C2(CCOCC2)C1 (stereo not drawn) | 725

SMILES | RP-LC retention time [s]
O=C(NCc1ccc2c(c1)OCO2)C1CCc2nc(N3CCCC3)ncc2C1 (stereo not drawn) | 631
O=C(NCc1cccc(Oc2ccc(F)cc2)c1)c1cccnc1 | 588
COc1cc([C@H]2c3cc4c(cc3[C@@H](O)[C@H](CO)[C@H]2C(=O)Nc2ccccc2)OCO4)cc(OC)c1OC | 730
CN1C(=O)c2cc(S(=O)(=O)NCc3ccc(F)cc3)ccc2Oc2cccnc21 | 951
N#Cc1ccc(S(=O)(=O)N2CC(c3nc(CCOCC4CCOCC4)no3)C2)cc1 | 813
Cc1cnc(C(=O)N2CCC(n3c(C)cnc3C3CCC3)C2)cn1 (stereo not drawn) | 560
CCCN1C(=O)c2ccccc2Sc2cc(-c3noc(CNC(C)=O)n3)ccc21 | 775
CCOC(=O)CCC(=O)Nc1ncc(C#N)s1 | 667
Cc1ccc(OCC(=O)NCC2CCN(Cc3ccncc3)CC2)cc1 | 543
COc1ccc(-c2nc(-c3cn(Cc4ccccc4)nn3)no2)cc1OC | 892
COc1cccc(NC(=O)C2(C)Oc3cccnc3N(C)C2=O)c1 (stereo not drawn) | 808
CC(=O)c1ccc(NC(=O)N2C[C@@H]3C[C@H](NC(=O)c4cccnc4)[C@H]2C3)cc1 | 627
Cc1cc2n(n1)CCCN2C(=O)CCC(=O)Nc1ccc(Br)cc1F | 735
CC(NC(=O)Cn1cnc(-c2noc(-c3cccnc3)n2)c1)c1ccccc1 (stereo not drawn) | 823
CCOc1ccc(-c2nnc3ccc(SC(C(C)=O)C(=O)N(C)C)nn23)cc1 (stereo not drawn) | 665
C[C@H](NC(=O)C1CCN(S(=O)(=O)c2ccccc2)CC1)C(=O)O | 643
COc1cc2c(cc1C(=O)NCc1ccc3c(c1)CCCO3)OCCCO2 | 920
CCOc1ccc(S(=O)(=O)Nc2cc(-c3cn4ccc(C)cc4n3)ccc2C)cc1 | 718
O=C(Nc1cccc(Cl)c1)Nc1ncc(CCNc2ncnc3ccsc23)s1 | 721

SMILES | RP-LC retention time [s]
O=C(NC1CC1)c1cc(-c2cccc(F)c2)ns1 | 882
CCc1ccc(N2C(=O)CN(S(C)(=O)=O)CC2(C)C(=O)NCc2ccccc2)cc1 (stereo not drawn) | 809
Cc1cc(C)n2nc(SCC(=O)NCc3ccc(F)cc3)nc2n1 | 671
CC(C)(C)c1ccc(-c2cc(C(=O)O)c3ccc(Br)cc3n2)cc1 | 1400
Cc1ccc(C)c(-c2cc3c(=O)n(Cc4nc(-c5ccccc5)no4)ncn3n2)c1 | 1200
CCOCCCNC(=O)c1nnc(-c2ccc(S(=O)(=O)N3CCCC3)cc2)o1 | 786
CNC(=O)c1noc([C@@H]2CC(F)(F)CN2Cc2ccc(C)o2)n1 | 1070
CCn1cc(-c2nc(CC(=O)NC3CCCCCC3)cs2)c2cccnc21 | 1050
COc1ccc(CC(=O)Nc2ccc(-c3nc(Cn4cc(C)cn4)c(C)o3)cc2)cc1 | 889
CS(=O)(=O)N(C1CCOCC1)C1CN(C(=O)c2n[nH]c3ccccc23)C1 | 663
CCOC(=O)C1CCN(C(=O)CCc2nc(-c3ccc(N4CCCC4)cc3)no2)CC1 | 1030
CCn1cc(CCNC(=O)c2ccccc2OC)c2cccnc21 | 716
CSc1nnc(NC(=O)c2ccccc2[N+](=O)[O-])s1 | 672
O=S(=O)(c1cnc[nH]1)N1CCC(c2nc(CCOc3ccc(F)cc3)no2)C1 (stereo not drawn) | 762
COc1ccc(NC(=O)c2cn3c(n2)CSCC3)cc1F | 694
O=C(Nc1ccc(-n2cnnn2)cc1)c1ccc(N2CCCC2)nn1 | 620
COc1ccc(-n2ccc(=O)c(-c3nc(-c4cccc(Br)c4)no3)n2)cc1 | 985
CCCCn1cnc2c(-c3ccccc3)cn(CC(=O)Nc3ccc(Cl)cc3)c2c1=O | 1120

Results, then the compound that gave them:

RP-LC retention time [s] | SMILES
609 | Cc1cc(N2CCN(C(=O)Nc3ccc4c(c3)OCCO4)CC2)nc(N2CCOCC2)n1
983 | COC(=O)c1ccc2c(=O)n(-c3cc(OC)cc(OC)c3)c(N3CCSCC3)nc2c1
1270 | COc1cccc(C2Cn3nnc(-c4nc(-c5ccc(C(F)(F)F)cc5)no4)c3CO2)c1 (stereo not drawn)
664 | Cc1ccc2nc(C(=O)N3CCN(c4ccccc4C)CC3)cn2c1
982 | O=C(Cn1ccc2ccccc21)N1CCN(c2ccc(C(F)(F)F)cn2)CC1
630 | Cc1ccccc1OCC(=O)N1CCN(c2cc(C)n3c(C)nnc3n2)CC1
892 | Cc1oc2ncnc(N3CCCC(C(=O)NCc4ccccc4Cl)C3)c2c1C (stereo not drawn)
897 | O=C(Nc1c(-c2cccc(F)c2)nc2sc(N3CCCCC3)nn12)C1CC1
790 | Cc1noc2nc(CCC(=O)NC(C)c3ccccc3)nc(N3CCCC3)c12 (stereo not drawn)
1080 | CCn1cc(-c2ccc(OC)cc2)cc1C(=O)N1CCCCCC1
607 | CCc1nc2ncc(-c3ccnc(N4CCN(Cc5ccccc5)CC4)n3)c(C)n2n1
1000 | CCc1nc(-c2cc(S(=O)(=O)N3CCC(C(=O)Nc4ccc(OC)cc4)CC3)c(C)s2)no1
954 | O=C(Nc1ccc(F)cc1)C(=O)c1cn(CC(=O)N2CCCC2)c2ccccc12
837 | O=C(Cc1cccc(C(F)(F)F)c1)Nc1cccn2ncnc12
877 | CN1c2cc(C(=O)N3CCN(c4ccccc4F)CC3)ccc2C(=O)N2CCCCC21 (stereo not drawn)
982 | COc1cccc(CNC(=O)C2(C)CCCN(C(=O)Nc3cc(Cl)ccc3C)C2)c1 (stereo not drawn)

RP-LC retention time [s] | SMILES
943 | Cn1c(=O)c2c(C(=O)N3CCN(c4cccc(C(F)(F)F)c4)CC3)cc(=O)n(C)c2n(C)c1=O
1190 | COc1ccc(Cl)cc1NC(=O)N1CCC2(CC1)NC(=O)c1ccccc1O2
601 | CCOC(=O)CNC(=O)N1CCN(Cc2nc3cc(-c4ccccc4)ccc3o2)CC1
644 | COCCN1C(=O)[C@H]2CN(Cc3ccc(C)cc3C)C[C@H]2C1=O
722 | COc1ccc(NC(=O)N2CCC3(CC2)NC(=O)c2cc(Cl)ccc2N3C)cc1OC
785 | CCC(=O)N1c2ccc(S(=O)(=O)CCC(=O)N3CCN(c4ccc(OC)cc4)CC3)cc2CC1C (stereo not drawn)
1040 | O=C(Cn1nc2c(SCc3ccc(Cl)cc3)nccn2c1=O)N1CCN(c2ccccc2)CC1
777 | COc1cccc(CNC(=O)c2ccc3c(c2)nc2n3CCN(Cc3ccccc3)C2=O)c1
744 | CN(CC(=O)N1CCN(c2ccccc2)CC1)S(=O)(=O)c1c[nH]c(C(=O)N2CCCC2)c1
738 | CCCn1cc(C(=O)NC2CCCC2)c2nn(-c3ccccc3)c(=O)c-2c1
549 | CN1CCN(CCNC(=O)c2cccc(N3CCNC(c4ccccc4)C3)n2)CC1 (stereo not drawn)
614 | Cc1ccc2cc(CCC(=O)NC3CCN(Cc4ccccc4)CC3)c(=O)[nH]c2c1
776 | CN1c2cc(F)ccc2C(=O)NC12CCN(C(=O)c1ccc(F)c(F)c1)CC2
919 | Cc1cc(C)cc(N2C(=O)CN(S(C)(=O)=O)CC2(C)C(=O)NCc2ccc(Cl)cc2)c1 (stereo not drawn)
905 | CCN(CC)S(=O)(=O)c1ccc2c(c1)N(CC(=O)N1CCCCC1)C(=O)C1CCCCN21 (stereo not drawn)
1160 | Cc1sc(-c2cc(C(F)(F)F)on2)cc1S(=O)(=O)NCc1ccc(F)cc1
